Legend:
human RBP4 = human RBP4 (Homo sapiens (Human), UniProt P02753); assay: Binding assay by Retinol-RBP4-TTR ELISA (human-type ELISA); settings: inhibition of binding of RBP4 with retinol and TTR; retinol 0.5 μM; read-out: human RBP4 binding inhibitory activity (IC50 nM)
Protocol: The action of the compound of the present invention to inhibit binding of RBP4 and retinol and TTR was evaluated using the Retinol-RBP4-TTR ELISA (human-type ELISA) system shown below.
Binding Assay by Retinol-RBP4-TTR ELISA
This ELISA system detects a complex of retinol, RBP4 and TTR by Streptoavidin-Biotin reaction.
His-tagged human RBP4 used was prepared in the above-mentioned 1C.
Biotinylate human TTR used was prepared in the above-mentioned 1E.
Streptavidin (20 μl) (10 μg/ml Streptavidin type II (Wako Pure Chemical Industries, Ltd.), 10 mM Tris-HCl (pH 7.5), 10 mM NaCl) was added to a 384 well black maxisorp plate (Nunc), and the plate was subjected to centrifugation (1000 rpm, 1 min) and coated overnight at 4° C. The plate was washed twice with PBST (PBS, 0.05% Tween 20, 100 μl/well) and blocked with 25% Block Ace (Snow Brand Milk Products Co., Ltd., PBS, 100 μl/well). The plate was subjected to centrifugation (1000 rpm, 1 min) and incubated at room temperature for 4 hr or overnight at 4° C. The plate was washed twice with PEST (PBS, 0.05% Tween 20, 100 μl/well), and biotinylated human TTR (stock solution concentration 1.3 mg/ml) diluted 1000-fold with PBST was added at 20 μl/well. The plate was subjected to centrifugation (1000 rpm, 1 min) and stood still at room temperature for 1.5 hr or overnight at 4° C. The plate was washed 3 times with PBST (100 μl/well), and His-tagged human RBP4 (stock solution concentration 0.96 mg/ml) diluted 4000-fold with a reaction buffer (50 mM Tris-HCl, 150 mM NaCl, 0.005% Tween 20, 1 mM DTT, 0.1% BSA) was added at 10 μl/well. The dilution series (8 doses from 10 mM, 200-fold concentration) of the compound was prepared with DMSO, and 1 μl of each was added to a reaction buffer (200 μl) containing retinol (0.5 μM) (Sigma-Aldrich Co.). A reaction buffer (200 μl) containing retinol and added with DMSO was used as a positive control, and reaction buffer (200 μl) free of retinol and added with DMSO was used as a negative control. Mixed solutions of retinol and the compound were added to the plate at 15 μl/well. The mixture was stirred in a platemixer subjected to centrifugation (1000 rpm, 1 min) and reacted at room temperature for 2 hr. A 35% Block Ace solution diluted with the reaction buffer was added at 10 μl/well, centrifuged (1000 rpm, 1 min) and reacted at room temperature for 30 min. The plate was washed 3 times with PBST (100 μl/well) and SuperSignal ELISA Femto Maximum Sensitivity Substrate reagent (PIERCE) was added at 30 μl/well, and the luminescence was measured by a platereader (Wallac).
The binding inhibitory rate of the compound was determined by 100×(test compound value-negative control value)/(positive control value-negative control value). The binding activity (IC50) was calculated from the binding inhibitory rate at each compound concentration using a graph drawing software, Prism (GraphPad Software Inc.).

RBP4 = RBP4 (Mus musculus (Mouse), UniProt Q00724); assay: Blood RBP4 lowering action in C57BL/6J mouse (plasma RBP4 by ELISA); format: in vivo; settings: mean±SD (n=5)
Protocol: A blood RBP4 lowering action of the compound of the present invention was evaluated using C57BL/6J mouse.
Male 7- to 15-week-old C57BL/6J mice (Charles River Laboratories Japan Inc.) were individually bred for acclimation for 4-6 days under conditions with free access to CE-2 solid food (CLEA Japan, Inc.), and grouped based on the body weight (5 per group). The next day of grouping, blood samples were collected from the orbital venous plexus, and plasma was separated (0 hr value). Thereafter, the test compounds (Examples 12, 143, 164, 189, 197, 207 and 215) were orally administered at a dose of 50 mg/kg (solvent: 0.5% methylcellulose solution (10 mL/kg)). At 4, 7 and 24 hr after administration of the compounds, blood samples were collected from the orbital venous plexus, and plasma was separated. A 0.5% methylcellulose solution (10 mL/kg) was orally administered to the control group.
The RBP4 level of the collected plasma was measured by ELISA. RBP4 was quantified by the following steps using a rabbit anti-mouse RBP4 polyclonal antibody (Hokudo Co., Ltd). A 96 well ELISA plate was coated with 50 μg/mL of the antibody (100 μL) and stood at 4° C. overnight. After blocking with BlockAce (DAINIPPON PHARMACEUTICAL CO., LTD.), mouse RBP4 or a sample (100 μL) was added and the plate was stood at room temperature for 2 hr. After washing with PBS-0.5% Tween 20, HRP-labeled anti-RBP4 antibody (prepared by labeling RBP4 polyclonal antibody (Hokudo Co., Ltd) with HRP (DOJINDO LABORATORIES)) was added by 100 μL, and the plate was stood at room temperature for 1 hr. After washing, TMB (Dako Cytomations) was added, and the mixture was stood at room temperature for 20 min to allow color development, and the reaction was quenched with 2N sulfuric acid. Thereafter, the absorbance at A450 nm was measured on a platereader. The amount of change from the initial value of each animal was determined as a relative value from the control group (% of initial/Control) at each time point. The results are shown in the following in mean±standard deviation (n=5).

Zucker fa/fa rat = assay: TG-lowering action using Zucker fa/fa rat (Charles River Laboratories Japan Inc.); format: in vivo; settings: oral 30 mg/kg for 2 weeks
Protocol: An anti-diabetes action and a blood triglyceride (hereinafter TG)-lowering action of the compound of the present invention were evaluated using Zucker fa/fa rats.
Male 10-week-old Zucker fa/fa rats (Charles River Laboratories Japan Inc.) were bred in group on CE-2 solid food (CLEA Japan, Inc.) until 12-week-old for acclimation under conditions with free access to food. At 12-week-old, the rats were grouped based on the body weight, blood glucose level, glycated hemoglobin level, blood RBP4 level and blood triglyceride blood (hereinafter TG) (5 per group). Thereafter, the test compound (Example 12) was orally administered at a dose of 30 mg/kg (solvent: 0.5% methylcellulose solution (3 mL/kg)) for 2 weeks. The next day of the final administration of the compound, blood samples were collected from the tail vein, and plasma was separated. Using the collected plasma, (1) RBP4 concentration and (2) TG level were measured. (1) was quantified according to the protocol described in Experimental Example 2. (2) was measured using Hitachi fully automatic analyzer (Model 7070).
A 0.5% methylcellulose solution (5 mL/kg) was orally administered to the control group. […] The results are shown in the following in mean±standard deviation (n=5).

With CC(C)(C)c1ccccc1OC1CN(C(=O)CCC(=O)O)C1 [Example 12, 4-(3-(2-tert-butylphenoxy)azetidin-1-yl)-4-oxobutanoic acid] the IC50 (human RBP4) was 210 nM, the “RBP4 (% of initial/Control) 4 hr later” value (RBP4; 4 hr after single oral 50 mg/kg) was 57.7 ± 3.6 % of initial/Control and the “RBP4 (% of initial/Control) 7 hr later” value (RBP4; 7 hr after single oral 50 mg/kg) was 44.3 ± 2.0 % of initial/Control. For the same compound, the “RBP4 (% of initial/Control) 24 hr later” value (RBP4; 24 hr after single oral 50 mg/kg) was 50.0 ± 3.4 % of initial/Control, the “TG (result in words)” value (Zucker fa/fa rat; versus control) was “significant decrease” and the “blood RBP4 concentration (result in words)” value (Zucker fa/fa rat; versus control) was “significant decrease”. For the same compound, the “RBP4” value (Zucker fa/fa rat; plasma, mean±SD (n=5)) was 8.2 ± 1.1 µg/mL and the “TG” value (Zucker fa/fa rat; plasma, mean±SD (n=5)) was 650.8 ± 130.6 mg/dL.

— US8586571B2, “Heterocyclic compound” (Takeda Pharmaceutical Company Limited, priority 2007, dated 2013)
